This is an account of results in publication PMC6270338, “Diterpenylquinone Hybrids: Synthesis and Assessment of Gastroprotective Mechanisms of Action in Human Cells” (Molecules, 2013).

Data set [1] in a line: Cytotoxicity, neutral red uptake assay, MRC-5. In kind it is cell-based. As to conditions: human, MRC-5 lung fibroblasts, confluent monolayer, confluent MRC-5, 24 h, read-out: IC50 ± SD, cytotoxicity MRC-5. How it is done: (§1) Human lung fibroblasts MRC-5 (ATCC CCL-171) were grown in minimum essential Eagle medium (MEM) with Earles’s salts and 2 mM L-glutamine (Sigma-Aldrich Co.). Human epithelial gastric cells AGS (ATCC CRL-1739) were grown in Ham F-12 medium containing 1 mM L-glutamine. Both media were supplemented with 1.5 g/L sodium bicarbonate (Sigma-Aldrich Co.), 10% heat-inactivated fetal bovine serum (FBS), 100 IU/mL penicillin and 100 µg/mL streptomycin.Both cell lines were grown as monolayers in a humidified incubator with 5% CO2 in air at 37 °C. Culture media, antibiotics and FBS were obtained from Invitrogen Corp.
(§2) Cytotoxicity values were required as a reference to determine the working concentrations in the subsequent experiments. Briefly, confluent cultures of MRC-5 and AGS cells were treated during 24 h with medium containing the compounds at concentrations ranging from 0 up to 1,000 µM. The products were first dissolved in DMSO (1% final concentration) and then in the corresponding culture medium supplemented with 2% FBS. Untreated cells were used as controls. Cell viability was determined at the end of the incubation by means of the neutral red uptake (NRU) assay. Lansoprazole (Sigma-Aldrich Co., min. 98% by TLC) was used as reference compound.

The nature of data set [2]: Cytotoxicity, neutral red uptake assay, AGS. It counts as cell-based. Particulars: human, AGS gastric epithelial cells, confluent monolayer, read-out: IC50 ± SD, cytotoxicity AGS. How it is done:
as §1, §2

Data set [3] relates to AGS cells. Description: Prostaglandin E2 (PGE2) content of AGS cells. In kind it is cell-based, human. As to conditions: 1 h; for PGE2: post-confluent AGS, control 52 ± 5. How it is done:
One day after confluence, AGS cells were treated for 1 h with the compounds at 1/2 and 1/4 of the respective IC50 values. A control with medium only was included. Indomethacin (100 μM) was used as standard inhibitor of prostaglandin synthesis (Sigma-Aldrich Co., min. 99% by TLC). After incubation, PGE2 content was determined by means of a specific enzyme immunoassay kit (R & D Systems KGE004B, Minneapolis, MN, USA) and values were calculated according to the manufacturer instructions. Results are expressed as pg/well.

Data set [4] has as its system AGS cells. Description: Cellular reduced glutathione (GSH) content of AGS cells. In kind it is cell-based, human. As to conditions: 4 h; for GSH: post-confluent AGS, control 13.6 ± 0.7. How it is done:
Untreated cells were used as controls. […] After incubation, the GSH content was determined using a colorimetric kit (BioAssays Systems, Hayward, CA, USA). Results are expressed as nanomol of soluble reduced sulfhydryls/10^6 cells.

Data set [5] deals with human erythrocyte membranes. Description: Inhibition of lipoperoxidation in erythrocyte membranes. Particulars: at 100 µg/mL. In kind it is biochemical. How it is done: The inhibition of lipid peroxidation was determined using human erythrocyte membranes. The compounds were tested at 100 µg/mL.
Another data set has as its system MRC-5 fibroblasts. Description: MRC-5 fibroblast proliferation assay. It counts as cell-based, human. As to conditions: MRC-5, 4 days, concentrations 1/64 to 1/2 of IC50. How it is done: Untreated cells were used as controls. Cell viability was determined at the end of the incubation by means of the NRU assay.
Data set [6] has as its system AGS cells. Description: Sodium taurocholate (NaT)-induced damage to AGS cells. It counts as cell-based, human. As to conditions: 60 min pre-treatment, then 10 mM NaT 30 min. How it is done:
The effect of sodium taurocholate (NaT) on cell viability was determined according to [15]. […] Then, 10 mM NaT was added to all wells for 30 min. Untreated cells were used as controls. […] After incubation, the NRU assay was carried out.

Data set [7] has as its system human erythrocyte membranes. Description: Inhibition of lipoperoxidation in erythrocyte membranes. In kind it is biochemical.

Usually IC50 stands for the concentration at which inhibition is half-maximal. For `CC(C)=CCC1=C(O)C(=O)c2ccccc2C1=O` [Compound 1, Lapachol], the IC50 at 24 h in data set [1] was greater than 1000 µM; in data set [2], 571 ± 28 µM. Further, in the data set on AGS cells [3] (Homo sapiens, AGS, 143 µM, read-out: increase in PGE2 content), the fold induction at 143 µM stood at 2.3. The fold induction at 286 µM in the data set on AGS cells [3] (Homo sapiens, AGS, 286 µM, read-out: increase in PGE2 content) was determined as 2.5. Besides, the PGE2 in the data set with AGS cells [3] (143 µM) turned out to be 117 ± 10 pg/mL; in the data set on AGS cells [3] (286 µM), 132 ± 12 pg/mL. Moreover, the GSH in the data set on AGS cells [4] (72 µM) turned out to be 13.9 ± 0.9 nmol/10^6 cells; with AGS cells [4] (143 µM), 14.1 ± 0.8 nmol/10^6 cells. Further, the “% Inhibition of the lipoperoxidation” value in data set [5] is on record as 38%.

On to `CC1=C(CC[C@@H](C)CC(=O)O)[C@@]2(C)CCC[C@](C)(C(=O)O)C2CC1` (stereo partly drawn) [Compound 5, Δ8(9) Junicedric acid], for which the IC50 at 24 h in data set [1] was 834 ± 51 µM; in data set [2], 666 ± 35 µM. In addition, in the data set on MRC-5 fibroblasts, the “Percentual proliferative increase compared to untreated cells” value (“Percentual proliferative increase” for short) was 3.6%. In addition, the “reduction in cell viability, NaT-induced damage” value (“reduction in cell viability” for short) in the data set with AGS cells [6] (83 µM) came to 19%; in the data set with AGS cells [6] (333 µM), 35%. For the same compound, the “Effect in the GSH assay” value with AGS cells [4] (AGS, 1/4 and 1/8 of IC50) is on record as “devoid of activity”. The GSH in the data set on AGS cells [4] (83 µM) is listed as 13.6 ± 0.5 nmol/10^6 cells; with AGS cells [4] (166 µM) it was 14.1 ± 0.6 nmol/10^6 cells. Moreover, in data set [7], the “IC50, inhibition of the lipoperoxidation” value was “IC50 43.8 ± 2.8 µg/mL”.

`C=C1CCC2[C@](C)(CCC[C@]2(C)C(=O)O)[C@H]1CC[C@@H](C)CC(=O)OC1=C(CCC(C)C)C(=O)C2=C(CCCC2)C1=O` (stereo partly drawn) [Compound 11, Dihydroprenyl-5,6,7,8-tetrahydrolapachoyl junicedrate]: the results for the IC50 at 24 h in data set [1] and in data set [2] were 42 ± 2 µM and 63 ± 4 µM, respectively. Further, in the data set on MRC-5 fibroblasts, the “Percentual proliferative increase” value stood at 3.6%. Further, the GSH in the data set on AGS cells [4] (8 µM) amounted to 13.1 ± 0.6 nmol/10^6 cells; with AGS cells [4] (16 µM) it was 13.2 ± 0.5 nmol/10^6 cells. Besides, the “% Inhibition of the lipoperoxidation” value in data set [5] stood at 44%.

Take `CC(C)=CCC1=C(OC(=O)C[C@H](C)CC[C@H]2[C@@H](C)CCC3[C@]2(C)CCC[C@]3(C)C(=O)O)C(=O)c2ccccc2C1=O` (stereo partly drawn) [Compound 13, Lapachoyl 17β-dihydrojunicedrate]: the concentration for half-maximal inhibition (IC50) at 24 h in data set [1] is 355 ± 21 µM; in data set [2], 351 ± 29 µM. In the data set with MRC-5 fibroblasts, the “Percentual proliferative increase” value worked out at 7.3%. The “reduction in cell viability” value in the data set on AGS cells [6] (45 µM) and in the data set on AGS cells [6] (89 µM) was 38% in each case. For the same compound, the values for the GSH with AGS cells [4] (44 µM) and with AGS cells [4] (88 µM) were 11.9 ± 0.4 nmol/10^6 cells and 11.4 ± 0.6 nmol/10^6 cells, respectively. Further, in data set [7], the “IC50, inhibition of the lipoperoxidation” value is “IC50 61.1 ± 5.9 µg/mL”.

For the compound `COC(=O)[C@@]1(C)CCC[C@@]2(C)C1CC[C@H](C)[C@@H]2CC[C@@H](C)CC(=O)OC1=C(CCC(C)C)C(=O)c2ccccc2C1=O` (stereo partly drawn) [Compound 16, Dihydroprenyl lapachol 17β-dihydrojunicedrate methyl ester], the results for the 50% inhibitory concentration (IC50) at 24 h in data set [1] and in data set [2] were 596 ± 44 µM and 643 ± 39 µM, respectively. Further, the “reduction in cell viability” value in the data set on AGS cells [6] (81 µM) came out at 44%. Besides, the figures for the GSH in the data set with AGS cells [4] (80 µM) and in the data set with AGS cells [4] (160 µM) were 14.9 ± 0.7 nmol/10^6 cells and 14.1 ± 0.6 nmol/10^6 cells, respectively. The “% Inhibition of the lipoperoxidation” value in data set [5] was 46%.

Regarding `COC(=O)[C@@]1(C)CCC[C@@]2(C)C1CC[C@H](C)[C@@H]2CC[C@@H](C)CC(=O)OC1=C(CC=C(C)C)C(=O)C2=C(CCCC2)C1=O` (stereo partly drawn) [Compound 18, Dihydroprenyl-5,6,7,8-tetrahydrolapachoyl 17β-dihydrojunicedrate methyl ester], the figures for the concentration for half-maximal inhibition (IC50) at 24 h in data set [1] and in data set [2] were 369 ± 29 µM and 884 ± 62 µM, respectively. In addition, in the data set with MRC-5 fibroblasts, the “Percentual proliferative increase” value is given as 3.6%. Besides, in the data set with AGS cells [3] (Homo sapiens, AGS, 111 µM, read-out: increase in PGE2 content), the fold induction at 111 µM was found to be 2.4. The fold induction at 221 µM with AGS cells [3] (Homo sapiens, AGS, 221 µM, read-out: increase in PGE2 content) is 3. The PGE2 in the data set on AGS cells [3] (111 µM) is recorded as 123 ± 9 pg/mL; with AGS cells [3] (221 µM), 156 ± 13 pg/mL. Moreover, in the data set with AGS cells [4] (Homo sapiens, AGS, 111 µM, read-out: increase of GSH content compared to untreated controls), the activation at 111 µM was found to be 26%. Further, in the data set on AGS cells [4] (Homo sapiens, AGS, 221 µM, read-out: increase of GSH content compared to untreated controls), the activation at 221 µM is 26%. The GSH entry is recorded as “* 17.1 ± 1.1 nmol/10^6 cells” with AGS cells [4] (111 µM) and “* 17.2 ± 1.0 nmol/10^6 cells” in the data set with AGS cells [4] (221 µM). In data set [5], the “% Inhibition of the lipoperoxidation” value turned out to be 28%.

For `CC(C)=CCC1=C(OC(=O)C[C@H](C)CCC2=C(C)CCC3[C@@](C)(C(=O)O)CCC[C@]23C)C(=O)c2ccccc2C1=O` (stereo partly drawn) [Compound 19, Lapachoyl Δ8(9) junicedrate], the half-inhibitory concentration (IC50) at 24 h in data set [1] came out at 129 ± 9 µM; in data set [2], 148 ± 9 µM. In addition, the “reduction in cell viability” value in the data set with AGS cells [6] (19 µM) is given as 15%; with AGS cells [6] (37 µM) it was 27%; in the data set on AGS cells [6] (74 µM), 40%. The GSH is 13.1 ± 0.4 nmol/10^6 cells in the data set with AGS cells [4] (19 µM) and 13.5 ± 0.5 nmol/10^6 cells in the data set with AGS cells [4] (37 µM). Also, the “% Inhibition of the lipoperoxidation” value in data set [5] was found to be 49%.

On to `CC1=C(CC[C@@H](C)CC(=O)OC2=C(CCC(C)C)C(=O)C3=C(CCCC3)C2=O)[C@@]2(C)CCC[C@](C)(C(=O)O)C2CC1` (stereo partly drawn) [Compound 23, Dihydroprenyl-5,6,7,8-tetrahydrolapachoyl Δ8(9) junicedrate], for which the values for the half-maximal inhibitory concentration (IC50) at 24 h in data set [1] and in data set [2] were 20 ± 2 µM and 29 ± 2 µM, respectively. The “Stimulation of fibroblast proliferation” value in the data set on MRC-5 fibroblasts is “inactive”. The “reduction in cell viability” value in the data set with AGS cells [6] (7.5 µM) stood at 32%; with AGS cells [6] (15 µM), 39%. Further, the activation at 7.3 µM with AGS cells [4] (Homo sapiens, AGS, 7.3 µM, read-out: increase of GSH content compared to untreated controls) was 26%. Further, the GSH with AGS cells [4] (3.6 µM) was 12.6 ± 0.8 nmol/10^6 cells; in the data set with AGS cells [4] (7.3 µM), “* 17.1 ± 1.3 nmol/10^6 cells”. Also, the “IC50, inhibition of the lipoperoxidation” value in data set [7] is “IC50 59.5 ± 4.3 µg/mL”.

Consider `COC(=O)[C@@]1(C)CCC[C@]2(C)C(CC[C@@H](C)CC(=O)OC3=C(CCC(C)C)C(=O)C4=C(CCCC4)C3=O)=C(C)CCC12` (stereo partly drawn) [Compound 24, Dihydroprenyl-5,6,7,8-tetrahydrolapachoyl Δ8(9) junicedrate methyl ester], for which the half-maximal inhibitory concentration (IC50) at 24 h in data set [1] and in data set [2] was greater than 1000 µM each time. The “Stimulation of fibroblast proliferation” value in the data set with MRC-5 fibroblasts was “inactive”. The fold induction at 250 µM in the data set on AGS cells [3] (Homo sapiens, AGS, 250 µM, read-out: increase in PGE2 content) was 2.4. The compound further displayed a PGE2 in the data set with AGS cells [3] (250 µM) of 123 ± 12 pg/mL. The GSH entry with AGS cells [4] (125 µM) is recorded as “* 18.7 ± 1.0 nmol/10^6 cells”; in the data set with AGS cells [4] (250 µM), “* 18.0 ± 0.9 nmol/10^6 cells”. Also, the “% Inhibition of the lipoperoxidation” value in data set [5] was determined as 27%.
